Legend:
Bacteroides fragilis = assay: Expected efficacy of antibiotic agents; conditions: expected efficacy against Bacteroides fragilis
Clostridium difficile = assay: Expected efficacy of antibiotic agents; conditions: expected efficacy against Clostridium difficile
Clostridium perfringens = conditions: expected efficacy against Clostridium perfringens
Chlamydia pneumoniae = assay: Expected efficacy of antibiotic agents; conditions: expected efficacy against Chlamydia pneumoniae
Chlamydia psittaci = conditions: expected efficacy against Chlamydia psittaci
Chlamydia trachomatis = assay: Expected efficacy of antibiotic agents; conditions: expected efficacy against Chlamydia trachomatis
Mycoplasma pneumoniae = assay: Expected efficacy of antibiotic agents; conditions: expected efficacy against Mycoplasma pneumoniae
Acinetobacter baumannii = assay: Expected efficacy of antibiotic agents; conditions: expected efficacy against Acinetobacter baumannii
[1] = test system: Acinetobacter calcoaceticus; assay: Expected efficacy of antibiotic agents; conditions: expected efficacy against Acinetobacter calcoaceticus
Acinetobacter lwoffii = assay: Expected efficacy of antibiotic agents; conditions: expected efficacy against Acinetobacter lwoffii
Bartonella bacilliformis = assay: Expected efficacy of antibiotic agents; conditions: expected efficacy against Bartonella bacilliformis
Bordetella pertussis = assay: Expected efficacy of antibiotic agents; conditions: expected efficacy against Bordetella pertussis
Brucella species = conditions: expected efficacy against Brucella species
Campylobacter jejuni = assay: Expected efficacy of antibiotic agents; conditions: expected efficacy against Campylobacter jejuni
Citrobacter diversus = assay: Expected efficacy of antibiotic agents; conditions: expected efficacy against Citrobacter diversus
Citrobacter freundii = assay: Expected efficacy of antibiotic agents; conditions: expected efficacy against Citrobacter freundii
Enterobacter aerogenes = assay: Expected efficacy of antibiotic agents; conditions: expected efficacy against Enterobacter aerogenes
Enterobacter cloacae = assay: Expected efficacy of antibiotic agents; conditions: expected efficacy against Enterobacter cloacae
Enterobacter sakazakii = assay: Expected efficacy of antibiotic agents; conditions: expected efficacy against Enterobacter sakazakii
Escherichia coli = assay: Expected efficacy of antibiotic agents; conditions: expected efficacy against Escherichia coli
Francisella tularensis = conditions: expected efficacy against Francisella tularensis
Haemophilus influenzae = assay: Expected efficacy of antibiotic agents; conditions: expected efficacy against Haemophilus influenzae
[2] = test system: Klebsiella (Calymmatobacterium) granulomatis; assay: Expected efficacy of antibiotic agents; conditions: expected efficacy against Klebsiella (Calymmatobacterium) granulomatis
Klebsiella oxytoca = assay: Expected efficacy of antibiotic agents; conditions: expected efficacy against Klebsiella oxytoca
Klebsiella pneumoniae = assay: Expected efficacy of antibiotic agents; conditions: expected efficacy against Klebsiella pneumoniae
Legionella pneumophila = conditions: expected efficacy against Legionella pneumophila
Moraxella catarrhalis = assay: Expected efficacy of antibiotic agents; conditions: expected efficacy against Moraxella catarrhalis
Morganella morganii = assay: Expected efficacy of antibiotic agents; conditions: expected efficacy against Morganella morganii
Neisseria meningitidis = assay: Expected efficacy of antibiotic agents; conditions: expected efficacy against Neisseria meningitidis
Proteus mirabilis = assay: Expected efficacy of antibiotic agents; conditions: expected efficacy against Proteus mirabilis
Proteus vulgaris = assay: Expected efficacy of antibiotic agents; conditions: expected efficacy against Proteus vulgaris
Providencia rettgeri = assay: Expected efficacy of antibiotic agents; conditions: expected efficacy against Providencia rettgeri
Providencia stuartii = assay: Expected efficacy of antibiotic agents; conditions: expected efficacy against Providencia stuartii
Pseudomonas aeruginosa = assay: Expected efficacy of antibiotic agents; conditions: expected efficacy against Pseudomonas aeruginosa
Pseudomonas fluorescens = assay: Expected efficacy of antibiotic agents; conditions: expected efficacy against Pseudomonas fluorescens
Rickettsiae = conditions: expected efficacy against Rickettsiae
Serratia marcescens = assay: Expected efficacy of antibiotic agents; conditions: expected efficacy against Serratia marcescens
Vibrio cholerae = assay: Expected efficacy of antibiotic agents; conditions: expected efficacy against Vibrio cholerae
Corynebacterium jeikeium = assay: Expected efficacy of antibiotic agents; conditions: expected efficacy against Corynebacterium jeikeium
Enterococcus faecalis = assay: Expected efficacy of antibiotic agents; conditions: expected efficacy against Enterococcus faecalis
Enterococcus faecium = assay: Expected efficacy of antibiotic agents; conditions: expected efficacy against Enterococcus faecium
[3] = test system: Methicillin resistant staph aureus (MRSA); assay: Expected efficacy of antibiotic agents; conditions: expected efficacy against Methicillin resistant staph aureus (MRSA)
[4] = test system: Staphylococcus aureus (MSSA); assay: Expected efficacy of antibiotic agents; conditions: expected efficacy against Staphylococcus aureus (MSSA)
[5] = test system: Staphylococcus epidermidis; assay: Expected efficacy of antibiotic agents; conditions: expected efficacy against Staphylococcus epidermidis
Streptococcus agalactiae = assay: Expected efficacy of antibiotic agents; conditions: expected efficacy against Streptococcus agalactiae
Streptococcus pneumoniae = assay: Expected efficacy of antibiotic agents; conditions: expected efficacy against Streptococcus pneumoniae
Streptococcus pyogenes = assay: Expected efficacy of antibiotic agents; conditions: expected efficacy against Streptococcus pyogenes
Haemophilus ducreyi = assay: Expected efficacy of antibiotic agents; conditions: expected efficacy against Haemophilus ducreyi
Neisseria gonorrhoeae = assay: Expected efficacy of antibiotic agents; conditions: expected efficacy against Neisseria gonorrhoeae
Salmonella typhi = assay: Expected efficacy of antibiotic agents; conditions: expected efficacy against Salmonella typhi
Shigella boydii = assay: Expected efficacy of antibiotic agents; conditions: expected efficacy against Shigella boydii
Shigella dysenteriae = assay: Expected efficacy of antibiotic agents; conditions: expected efficacy against Shigella dysenteriae
Shigella flexneri = assay: Expected efficacy of antibiotic agents; conditions: expected efficacy against Shigella flexneri
Shigella sonnei = assay: Expected efficacy of antibiotic agents; conditions: expected efficacy against Shigella sonnei
Yersinia pestis = conditions: expected efficacy against Yersinia pestis
[6] = test system: Corynebacterium urealyticum; assay: Expected efficacy of antibiotic agents; conditions: expected efficacy against Corynebacterium urealyticum
[7] = test system: Haemophilus parainfluenzae; assay: Expected efficacy of antibiotic agents; conditions: expected efficacy against Haemophilus parainfluenzae
Candida species = assay: Expected efficacy of antifungal agents; conditions: expected efficacy against Candida species

## CC[C@H]1OC(=O)[C@H](C)[C@@H](O[C@H]2C[C@@](C)(OC)[C@@H](O)[C@H](C)O2)[C@H](C)[C@@H](O[C@@H]2O[C@H](C)C[C@H](N(C)C)[C@H]2O)[C@](C)(O)C[C@@H](C)CN(C)[C@H](C)[C@@H](O)[C@]1(C)O [Azithromycin]
Bacteroides fragilis
  Efficacy: no
Clostridium difficile
  Efficacy: no
Clostridium perfringens
  Efficacy: no
Chlamydia pneumoniae
  Efficacy: yes
Chlamydia psittaci
  Efficacy: yes
Chlamydia trachomatis
  Efficacy: yes
Mycoplasma pneumoniae
  Efficacy: yes
Acinetobacter baumannii
  Efficacy: no
[1]
  Efficacy: no
Acinetobacter lwoffii
  Efficacy: no
Bartonella bacilliformis
  Efficacy: yes
Bordetella pertussis
  Efficacy: yes
Brucella species
  Efficacy: no
Campylobacter jejuni
  Efficacy: yes
Citrobacter diversus
  Efficacy: no
Citrobacter freundii
  Efficacy: no
Enterobacter aerogenes
  Efficacy: no
Enterobacter cloacae
  Efficacy: no
Enterobacter sakazakii
  Efficacy: no
Escherichia coli
  Efficacy: no
Francisella tularensis
  Efficacy: no
Haemophilus influenzae
  Efficacy: yes
[2]
  Efficacy: no
Klebsiella oxytoca
  Efficacy: no
Klebsiella pneumoniae
  Efficacy: no
Legionella pneumophila
  Efficacy: yes
Moraxella catarrhalis
  Efficacy: yes
Morganella morganii
  Efficacy: no
Neisseria meningitidis
  Efficacy: yes
Proteus mirabilis
  Efficacy: no
Proteus vulgaris
  Efficacy: no
Providencia rettgeri
  Efficacy: no
Providencia stuartii
  Efficacy: no
Pseudomonas aeruginosa
  Efficacy: no
Pseudomonas fluorescens
  Efficacy: no
Rickettsiae
  Efficacy: yes
Serratia marcescens
  Efficacy: no
Vibrio cholerae
  Efficacy: yes
Corynebacterium jeikeium
  Efficacy: no
Enterococcus faecalis
  Efficacy: no
Enterococcus faecium
  Efficacy: no
[3]
  Efficacy: no
[4]
  Efficacy: yes
[5]
  Efficacy: yes
Streptococcus agalactiae
  Efficacy: yes
Streptococcus pneumoniae
  Efficacy: yes
Streptococcus pyogenes
  Efficacy: yes

## C/C(=C\C(=O)OCCCCCCCCC(=O)O)C[C@@H]1OC[C@H](C[C@@H]2O[C@H]2[C@@H](C)[C@H](C)O)[C@@H](O)[C@H]1O [Bactroban]
Clostridium perfringens
  Efficacy: no
Acinetobacter baumannii
  Efficacy: no
[1]
  Efficacy: no
Acinetobacter lwoffii
  Efficacy: no
Bartonella bacilliformis
  Efficacy: no
Bordetella pertussis
  Efficacy: no
Brucella species
  Efficacy: no
Campylobacter jejuni
  Efficacy: no
Citrobacter diversus
  Efficacy: no
Citrobacter freundii
  Efficacy: no
Enterobacter aerogenes
  Efficacy: no
Enterobacter cloacae
  Efficacy: no
Enterobacter sakazakii
  Efficacy: no
Escherichia coli
  Efficacy: no
Francisella tularensis
  Efficacy: no
Haemophilus ducreyi
  Efficacy: no
Haemophilus influenzae
  Efficacy: no
[2]
  Efficacy: no
Klebsiella oxytoca
  Efficacy: no
Klebsiella pneumoniae
  Efficacy: no
Legionella pneumophila
  Efficacy: no
Moraxella catarrhalis
  Efficacy: no
Morganella morganii
  Efficacy: no
Neisseria gonorrhoeae
  Efficacy: no
Neisseria meningitidis
  Efficacy: no
Proteus mirabilis
  Efficacy: no
Proteus vulgaris
  Efficacy: no
Providencia rettgeri
  Efficacy: no
Providencia stuartii
  Efficacy: no
Pseudomonas aeruginosa
  Efficacy: no
Pseudomonas fluorescens
  Efficacy: no
Rickettsiae
  Efficacy: no
Salmonella typhi
  Efficacy: no
Serratia marcescens
  Efficacy: no
Shigella boydii
  Efficacy: no
Shigella dysenteriae
  Efficacy: no
Shigella flexneri
  Efficacy: no
Shigella sonnei
  Efficacy: no
Vibrio cholerae
  Efficacy: no
Yersinia pestis
  Efficacy: no
Corynebacterium jeikeium
  Efficacy: no
[6]
  Efficacy: no
[3]
  Efficacy: yes
[4]
  Efficacy: yes
Streptococcus pyogenes
  Efficacy: yes

## O=C(O)c1cn(C2CC2)c2cc(N3CCNCC3)c(F)cc2c1=O [Ciprofloxacin, ciprofloxacin]
Bacteroides fragilis
  Efficacy: no
Chlamydia pneumoniae
  Efficacy: yes
Bartonella bacilliformis
  Efficacy: yes
Campylobacter jejuni
  Efficacy: yes
Citrobacter diversus
  Efficacy: yes
Citrobacter freundii
  Efficacy: yes
Enterobacter aerogenes
  Efficacy: yes
Escherichia coli
  Efficacy: yes
Francisella tularensis
  Efficacy: yes
Haemophilus influenzae
  Efficacy: yes
[7]
  Efficacy: yes
Klebsiella oxytoca
  Efficacy: yes
Klebsiella pneumoniae
  Efficacy: yes
Legionella pneumophila
  Efficacy: yes
Moraxella catarrhalis
  Efficacy: yes
Morganella morganii
  Efficacy: yes
Neisseria gonorrhoeae
  Efficacy: yes
Neisseria meningitidis
  Efficacy: yes
Proteus mirabilis
  Efficacy: yes
Proteus vulgaris
  Efficacy: yes
Providencia rettgeri
  Efficacy: yes
Providencia stuartii
  Efficacy: yes
Pseudomonas aeruginosa
  Efficacy: yes
Pseudomonas fluorescens
  Efficacy: yes
Rickettsiae
  Efficacy: yes
Salmonella typhi
  Efficacy: yes
Serratia marcescens
  Efficacy: yes
Shigella boydii
  Efficacy: yes
Shigella dysenteriae
  Efficacy: yes
Shigella flexneri
  Efficacy: yes
Shigella sonnei
  Efficacy: yes
Vibrio cholerae
  Efficacy: yes
Yersinia pestis
  Efficacy: yes
Corynebacterium jeikeium
  Efficacy: no
Enterococcus faecium
  Efficacy: no
[3]
  Efficacy: no
[5]
  Efficacy: yes

## C[C@@H]1[C@H](O)[C@@H](C)/C=C/C=C/CC/C=C/C=C/C=C/C=C/C(O[C@H]2O[C@H](C)[C@@H](O)[C@H](N)[C@@H]2O)CC2O[C@](O)(CC(O)C(O)CCC(O)CC(O)CC(O)CC(=O)O[C@H]1C)CC(O)C2C(=O)O (stereo partly shown) [Nystatin, nystatin]
Candida species
  Efficacy: yes

From patent US20170173002A1, “Compositions and Methods for Treating an Infection” (CMPD LICENSING, LLC, priority 2015, published 2017)
